# Measured values reported in ChEMBL document CHEMBL1137327, “Optimization of chromone-2-carboxamide melanin concentrating hormone receptor 1 antagonists: assessment of potency, efficacy, and cardiovascular safety” (J Med Chem, 2006).
# Calls of active or inactive are those of the source. No cut-off for these calls is given here.
# Experiments:
# [1] = target: T1, Melanin-concentrating hormone receptor 1 (Homo sapiens, UniProt Q99705); test: Displacement of [125I]MCH from MCHr1 expressed in IMR32 cells; type: cell-based, IMR-32
# T1 sequence (Q99705 whole entry): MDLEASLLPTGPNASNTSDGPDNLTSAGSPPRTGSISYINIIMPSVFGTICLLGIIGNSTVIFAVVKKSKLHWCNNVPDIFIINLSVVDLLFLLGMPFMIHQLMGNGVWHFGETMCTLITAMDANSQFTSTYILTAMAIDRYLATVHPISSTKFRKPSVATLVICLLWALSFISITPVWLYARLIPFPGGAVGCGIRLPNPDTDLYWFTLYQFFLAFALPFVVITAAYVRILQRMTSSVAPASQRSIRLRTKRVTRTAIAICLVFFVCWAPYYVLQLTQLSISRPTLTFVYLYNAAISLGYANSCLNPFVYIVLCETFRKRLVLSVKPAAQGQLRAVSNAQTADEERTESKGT
# [2] = target: T1, Melanin-concentrating hormone receptor 1; test: Antagonist activity at MCHr1 assessed as inhibition of MCH-mediated calcium ion release in intact IMR32 cells by FLIPR assay; type: functional, cell-based, IMR-32
# Rattus norvegicus [3] = test: Drug level in anesthetized Sprague-Dawley rat plasma; type: ADME, organism-based; conditions: in vivo
# Rattus norvegicus [4] = test: Decrease in heart rate in anesthetized Sprague-Dawley rat at 60 mg/kg; type: functional; design: scale not given: the % may be the effect or the level left
# Rattus norvegicus [5] = test: Decrease in mean arterial pressure in anesthetized Sprague-Dawley rat at 60 mg/kg; type: functional, Artery; design: scale not given: the % may be the effect or the level left
# Rattus norvegicus [6] = test: Drug level in anesthetized Sprague-Dawley rat brain; type: ADME, organism-based; conditions: in vivo
# [7] = Cmax in C57BL/6J DIO mouse plasma at 10 mg/kg, po; type: ADME, organism-based; design: dose 10 mg/kg, route oral; conditions: read-out: Cmax
# [8] = Half life in C57BL/6J DIO mouse plasma at 10 mg/kg, po; type: ADME, organism-based; design: dose 10 mg/kg, route oral
# Rattus norvegicus [9] = test: Decrease in heart rate in anesthetized Sprague-Dawley rat at 100 mg/kg; type: functional; design: scale not given: the % may be the effect or the level left
# [10] = AUC in C57BL/6J DIO mouse plasma at 10 mg/kg, po; type: ADME, organism-based; design: dose 10 mg/kg, route oral
# Mus musculus [11] = test: AUC in C57BL/6J DIO mouse brain at 10 mg/kg, po; type: ADME, organism-based; design: dose 10 mg/kg, route oral; conditions: in vivo
# Mus musculus [12] = test: Decrease in body weight of C57BL/6J DIO mouse at 10 mg/kg, po after 14 days relative to control; type: functional; design: scale not given: the % may be the effect or the level left
# [13] = Drug level in C57BL/6J DIO mouse plasma at 10 mg/kg, po after 14 days; type: ADME, organism-based; design: dose 10 mg/kg, route oral
# Mus musculus [14] = test: Decrease in body weight of C57BL/6J DIO mouse at 3 mg/kg, po relative to control; type: functional, organism-based; design: dose 3 mg/kg
# [15] = Half life in C57BL/6J DIO mouse brain at 10 mg/kg, po; type: ADME, organism-based; design: dose 10 mg/kg, route oral
# [16] = Ratio of AUC in brain to plasma of C57BL/6J DIO mouse at 10 mg/kg, po; type: ADME, organism-based; design: dose 10 mg/kg, route oral; conditions: brain and plasma, read-out: Ratio AUC
# [17] = Cmax in C57BL/6J DIO mouse brain at 10 mg/kg, po; type: ADME, organism-based; design: dose 10 mg/kg, route oral
# Mus musculus [18] = test: Decrease in food intake of C57BL/6J DIO mouse at 10 mg/kg, po relative to control; type: functional; design: scale not given: the % may be the effect or the level left
# [19] = Drug level in C57BL/6J DIO mouse brain at 10 mg/kg, po after 14 days; type: ADME, organism-based; design: dose 10 mg/kg, route oral; conditions: read-out: Drug uptake
# Mus musculus [20] = test: Decrease in body weight of C57BL/6J DIO mouse at 30 mg/kg, po after 14 days relative to control; type: functional; design: scale not given: the % may be the effect or the level left
# [21] = Drug level in C57BL/6J DIO mouse plasma at 30 mg/kg, po after 14 days; type: ADME, organism-based; design: dose 30 mg/kg, route oral
# [22] = Drug level in C57BL/6J DIO mouse brain at 30 mg/kg, po after 14 days; type: ADME, organism-based; design: dose 30 mg/kg, route oral; conditions: read-out: Drug uptake
# Mus musculus [23] = test: Decrease in food intake of C57BL/6J DIO mouse at 30 mg/kg, po relative to control; type: functional; design: scale not given: the % may be the effect or the level left
# Mus musculus [24] = test: Decrease in body weight of C57BL/6J DIO mouse at 1 mg/kg, po relative to control; type: functional, organism-based; design: dose 1 mg/kg
Structure (SMILES),IC50 [1] [nM],IC50 [2] [nM],further results
COc1ccc(CN2CCC(NC(=O)c3cc(=O)c4ccc(F)cc4o3)CC2)c(F)c1,53,411,
O=C(NC1CCN(Cc2ccc(F)cc2)CC1)c1cc(=O)c2ccc(F)cc2o1,159,789,
O=C(NC1CCN(Cc2ccc3c(c2)OC(F)(F)O3)CC1)c1cc(=O)c2ccc(F)cc2o1,57,601,
COc1cc2oc(C(=O)NC3CCN(Cc4ccc5c(c4)OCO5)CC3)cc(=O)c2cc1F,2,16,Cp (Rattus norvegicus [3]): 105000 ng/mL; Activity (Rattus norvegicus [4]): <15%; Activity (Rattus norvegicus [5]): 15.3%; Drug uptake (Rattus norvegicus [6]): 149 µg/g
O=C(NC1CCN(Cc2ccc3c(c2)OCO3)CC1)c1cc(=O)c2c(Cl)cccc2o1,24,> 10000,
COc1cccc(CN2CCC(NC(=O)c3cc(=O)c4ccc(F)cc4o3)CC2)c1,31,390,
O=C(NC1CCN(Cc2ccccc2F)CC1)c1cc(=O)c2ccc(F)cc2o1,566,2150,
COc1ccc2c(=O)cc(C(=O)NC3CCN(Cc4ccc5c(c4)OCO5)C3)oc2c1 (stereo not given),> 2000,,
COc1ccc2c(=O)cc(C(=O)NCCC3CCCN3Cc3ccc4c(c3)OCO4)oc2c1 (stereo not given),> 2000,,
COc1ccc(CN2CCC(NC(=O)c3cc(=O)c4ccc(F)cc4o3)CC2)cc1OC,427,,
COc1ccc2c(=O)cc(C(=O)NC3CCCN(Cc4ccc5c(c4)OCO5)C3)oc2c1 (stereo not given),> 2000,,
Cc1c(C(=O)NC2CCN(Cc3ccc4c(c3)OCO4)CC2)oc2cc(Cl)ccc2c1=O,2,67,
O=C(NC1CCN(Cc2ccc3c(c2)OCO3)CC1)c1cc(=O)c2cc(Cl)c(Cl)cc2o1,,83,Cmax [7]: 33 ng/mL; Cp (Rattus norvegicus [3]): 20000 ng/mL; half-life [8]: 0.9 h; Activity (Rattus norvegicus [9]): 10%; AUC [10]: 39 ng·h/mL; AUC (Mus musculus [11]): 0 ng·h/g; Drug uptake (Rattus norvegicus [6]): 63 µg/g
O=C(NC1CCN(Cc2ccc3c(c2)OCO3)CC1)c1cc(=O)c2ccc(OC(F)F)cc2o1,64,160,
O=C(NC1CCN(Cc2cccc3c2OCO3)CC1)c1cc(=O)c2ccc(F)cc2o1,> 700,,
O=C(NC1CCN(Cc2ccc3c(c2)OCO3)CC1)c1cc(=O)c2cc(Br)ccc2o1,187,> 6000,
O=C(NC1CCN(Cc2ccc3c(c2)OCO3)CC1)c1cc(=O)c2cc(OC(F)(F)F)ccc2o1,132,> 9000,
O=C(NC1CCN(Cc2ccc3c(c2)OCO3)CC1)c1cc(=O)c2ccc(Cl)cc2o1,5,79,
O=C(NC1CCN(Cc2ccc3c(c2)OCO3)CC1)c1cc(=O)c2cc(F)ccc2o1,65,196,
N#Cc1ccc2c(=O)cc(C(=O)NC3CCN(Cc4ccc5c(c4)OCO5)CC3)oc2c1,47,137,
O=C(NC1CCN(Cc2cccc(F)c2)CC1)c1cc(=O)c2ccc(F)cc2o1,12,966,
O=C(NC1CCN(Cc2ccc3c(c2)OCO3)CC1)c1cc(=O)c2cc(C(F)(F)F)ccc2o1,351,,

Structure (SMILES),IC50 [1] [nM],IC50 [2] [nM],further results
O=C(NC1CCN(Cc2ccccc2)CC1)c1cc(=O)c2ccc(F)cc2o1,60,592,
O=C(NC1CCN(Cc2ccc3c(c2)OCO3)CC1)c1cc(=O)c2ccc(C(F)(F)F)cc2o1,178,3070,
COc1ccc(CN2CCC(NC(=O)c3cc(=O)c4ccc(F)cc4o3)CC2)cc1,13,101,
COc1ccc2c(=O)cc(C(=O)N3CCN(Cc4ccc5c(c4)OCO5)CC3)oc2c1,> 2000,,
COc1ccc2c(=O)cc(C(=O)NC3CCC(CNCc4ccc5c(c4)OCO5)CC3)oc2c1 (stereo not given),> 2000,,
O=C(NC1CCN(Cc2ccc3c(c2)OCO3)CC1)c1cc(=O)c2ccccc2o1,66,192,
CC(=O)c1ccc(CN2CCC(NC(=O)c3cc(=O)c4ccc(F)cc4o3)CC2)cc1,39,581,
O=C(NC1CCN(Cc2ccc3c(c2)OCCO3)CC1)c1cc(=O)c2ccc(F)cc2o1,73,171,
O=C(NC1CCN(Cc2ccc3c(c2)OCO3)CC1)c1cc(=O)c2cc(F)c(Cl)cc2o1,3,71,
O=C(NC1CCN(Cc2ccc3c(c2)OCO3)CC1)c1cc(=O)c2cc(F)cc(F)c2o1,99,2720,
Cc1ccc2oc(C(=O)NC3CCN(Cc4ccc5c(c4)OCO5)CC3)cc(=O)c2c1,393,,
CC(=O)Nc1ccc(CN2CCC(NC(=O)c3cc(=O)c4ccc(F)cc4o3)CC2)cc1,1690,> 10000,
O=C(NC1CCN(Cc2ccc3c(c2)OCO3)CC1)c1cc(=O)c2cc(Cl)ccc2o1,734,2050,
O=C(NC1CCN(Cc2ccc3c(c2)OCO3)CC1)c1cc(=O)c2cc(F)c(F)cc2o1,2,13,Cp (Rattus norvegicus [3]): 34000 ng/mL; Activity (Rattus norvegicus [5]): >15%; Drug uptake (Rattus norvegicus [6]): 25 µg/g
O=C(NC1CCN(Cc2ccc3c(c2)OCO3)CC1)c1cc(=O)c2ccc(O)cc2o1,1480,> 10000,
CCc1ccc2c(=O)cc(C(=O)NC3CCN(Cc4ccc5c(c4)OCO5)CC3)oc2c1,59,529,
O=C(NC1CCN(Cc2ccc3c(c2)OCO3)CC1)c1cc(=O)c2c(Cl)c(Cl)ccc2o1,75,4750,
COc1ccc2c(=O)cc(C(=O)NC3CCN(Cc4ccc5c(c4)OCO5)CC3)oc2c1,11,73,Activity (Mus musculus [12]): 7.3%; concentration at 336 h [13]: 10100 ng/mL; Activity (Mus musculus [14]): inactive; Cmax [7]: 3600 ng/mL; half-life [15]: 4.9 h; Cp (Rattus norvegicus [3]): 29000 ng/mL; Kp [16]: 0.24; half-life [8]: 3.1 h; Cmax [17]: 548 ng/g; Activity (Mus musculus [18]): 16%; concentration at 336 h [19]: 4900 ng/g; Activity (Mus musculus [20]): 15.9%; concentration at 336 h [21]: 32900 ng/mL; concentration at 336 h [22]: 27100 ng/g; AUC (Mus musculus [11]): 4398 ng·h/g; Drug uptake (Rattus norvegicus [6]): 158 µg/g; Activity (Mus musculus [23]): 37%; Activity (Mus musculus [24]): inactive
COc1ccc2c(=O)cc(C(=O)NCC3CCN(Cc4ccc5c(c4)OCO5)C3)oc2c1 (stereo not given),1140,8300,
O=C(NC1CCN(Cc2ccc3c(c2)OCO3)CC1)c1cc(=O)c2ccc(Br)cc2o1,32,82,
O=C(NC1CCN(Cc2cc3c(cc2Cl)OCO3)CC1)c1cc(=O)c2ccc(F)cc2o1,22,266,
O=C(NC1CCN(Cc2ccc3c(c2)OCO3)CC1)c1cc(=O)c2cc(F)c(F)c(F)c2o1,91,418,
